From patent publication US8921388B2, “Dihydroxypyrimidine carbonic acid derivatives and their use in the treatment, amelioration or prevention of a viral disease” (priority 2012, dated 2014)

Each molecule was assayed against T1, influenza A virus (IAV) PA-Nter fragment (amino acids 1-209) harbouring the influenza endonuclease activity (Influenza A virus, UniProt P31343) (assay: FRET endonuclease activity assay). Settings: @ 10 μM; compound-treated compared to untreated.
T1 construct: PA-Nter fragment (amino acids 1-209); made in house
Type: biochemical
In the case of `COC(=O)c1nc(CC2CCCCC2)n(C)c(=O)c1O`, the “FRET % reduction of v0” value is reported as 25% @ 10 μM.
In the case of `O=C(NCc1ccc(Cl)cc1)c1nc(Cc2ccccc2Br)nc(O)c1O`, the “FRET % reduction of v0” value is reported as 37% @ 10 μM.
In the case of `COC(=O)c1c(O)c(=O)nc(Cc2ccccc2Br)n1Cc1ccccc1`, the “FRET % reduction of v0” value is reported as 23% @ 10 μM.

Same assay, conditions: calculated from initial reaction velocities (v0); 0.5 μM PA-Nter, 1.6 μM RNA substrate
`CNC(=O)c1nc(Cc2ccccc2-c2ccccc2)nc(O)c1O` showed an IC50 of 660 nM.
Work on `CNC(=O)c1nc(Cc2ccccc2Br)nc(O)c1O` yielded an IC50 of 5700 nM.
`CNC(=O)c1nc(Cc2ccccc2-c2ccccc2)n(C)c(=O)c1O` gave an IC50 of 23000 nM.
`O=C(NCc1ccc(F)cc1)c1nc(Cc2ccccc2Br)nc(O)c1O` gave an IC50 of 27000 nM.
`COC(=O)c1nc(Cc2ccccc2Br)nc(O)c1OC(C)=O` showed an IC50 of 7900 nM.
`NC(=O)c1nc(Cc2ccc(F)cc2Br)nc(O)c1O` showed an IC50 of 2700 nM.
In the case of `COC(=O)c1nc(Cc2ccc(F)cc2Br)nc(O)c1O`, the IC50 is reported as 1500 nM.
For `O=C(O)c1nc(Cc2ccccc2Br)nc(O)c1O`, the IC50 was 250 nM.
Molecule `O=C(O)c1nc(Cc2cc(C(F)(F)F)ccc2Br)nc(O)c1O` has an IC50 of 160 nM.
Molecule `O=C(O)c1nc(CC2(c3ccccc3)CCCC2)nc(O)c1O` has an IC50 of 80 nM.
In the case of `O=C(O)c1nc(CC2CCCCC2)nc(O)c1O`, the IC50 is reported as 210 nM.
`CNC(=O)c1nc(NS(=O)(=O)Cc2cccc(C)c2)n(C)c(=O)c1O` gave an IC50 of 6800 nM.
`CNC(=O)c1nc(NS(=O)(=O)Cc2ccc(Cl)cc2)n(C)c(=O)c1O` showed an IC50 of 5800 nM.
In the case of `CNC(=O)c1nc(CC2(c3ccccc3)CCCC2)nc(O)c1O`, the IC50 is reported as 140 nM.
In the case of `Cn1c(Cc2ccccc2-c2ccccc2)nc(C(N)=O)c(O)c1=O`, the IC50 is reported as 1300 nM.
`COC(=O)c1nc(Cc2ccccc2-c2ccccc2C)nc(O)c1O` showed an IC50 of 120 nM.
For `O=C(O)c1nc(CC(c2ccccc2)c2ccccc2)nc(O)c1O`, the IC50 was 2500 nM.
For `COC(=O)c1nc(Cc2ccccc2-c2cccc(C)c2)nc(O)c1O`, the IC50 was 350 nM.
Work on `O=C(NCCc1ccccc1)c1nc(Cc2ccccc2-c2ccccc2)nc(O)c1O` yielded an IC50 of 3800 nM.
Work on `CCOC(=O)c1nc(CC2CCCCC2)nc(O)c1O` yielded an IC50 of 3200 nM.
For `NC(=O)c1nc(CC2(c3ccccc3)CCCC2)nc(O)c1O`, the IC50 was 240 nM.
In the case of `COC(=O)c1nc(Cc2ccccc2-c2cc(C)ccc2C)nc(O)c1O`, the IC50 is reported as 150 nM.
With `CC(C)NC(=O)c1nc(Cc2cccc(Br)c2)nc(O)c1O` the IC50 was 23000 nM.
`CNC(=O)c1nc(Cc2ccccc2-c2cc(C)ccc2C)nc(O)c1O` gave an IC50 of 530 nM.
`COC(=O)c1c(O)c(=O)nc(Cc2ccccc2)n1Cc1ccccc1` gave an IC50 of 19000 nM.
In the case of `O=C(O)c1c(O)c(=O)nc(Cc2ccccc2)n1Cc1ccccc1`, the IC50 is reported as 3800 nM.
With `Cc1cccc(-c2ccccc2Cc2nc(C(N)=O)c(O)c(=O)[nH]2)c1` the IC50 was 550 nM.
Work on `Cc1cccc(-c2ccccc2Cc2nc(O)c(O)c(C(=O)O)n2)c1` yielded an IC50 of 230 nM.
For `CCCNC(=O)c1nc(Cc2ccccc2-c2ccccc2)nc(O)c1O`, the IC50 was 8800 nM.
`Cc1ccc(C)c(-c2ccccc2Cc2nc(O)c(O)c(C(=O)O)n2)c1` showed an IC50 of 30 nM.
With `Cn1c(CC2(c3ccccc3)CCCC2)nc(C(=O)O)c(O)c1=O` the IC50 was 260 nM.
Work on `Cn1c(NS(=O)(=O)Cc2ccc(Cl)cc2)nc(C(=O)O)c(O)c1=O` yielded an IC50 of 540 nM.
`Cn1c(Cc2ccccc2-c2ccccc2)nc(C(=O)O)c(O)c1=O` gave an IC50 of 1300 nM.
Work on `CNC(=O)c1nc(NS(=O)(=O)Cc2ccc(C)cc2)n(C)c(=O)c1O` yielded an IC50 of 13000 nM.
For `O=C(NCc1ccc(Cl)cc1)c1nc(Cc2ccccc2-c2ccccc2)nc(O)c1O`, the IC50 was 1800 nM.
Work on `COC(=O)c1nc(CC2(c3ccccc3)CCCC2)nc(O)c1O` yielded an IC50 of 410 nM.
Work on `Cc1ccc(C)c(-c2ccccc2Cc2nc(O)c(O)c(C(=O)OC(C)(C)C)n2)c1` yielded an IC50 of 1100 nM.
`CCOC(=O)c1nc(Cc2ccccc2-c2cc(C)ccc2C)nc(O)c1O` gave an IC50 of 220 nM.
Work on `CNC(=O)c1nc(CC2(c3ccccc3)CCCC2)n(C)c(=O)c1O` yielded an IC50 of 410 nM.
`CC(C)NC(=O)c1nc(Cc2ccccc2-c2ccccc2)nc(O)c1O` was tested, and the IC50 was 8200 nM.
`Cc1ccccc1Cc1nc(O)c(O)c(C(=O)O)n1` was tested, and the IC50 was 270 nM.
`Cc1ccccc1-c1ccccc1Cc1nc(O)c(O)c(C(=O)O)n1` was tested, and the IC50 was 240 nM.
For `CC(C)NC(=O)c1nc(Cc2ccccc2-c2ccccc2)n(C)c(=O)c1O`, the IC50 was 14000 nM.
With `O=C(NCc1ccccc1)c1nc(Cc2ccccc2-c2ccccc2)nc(O)c1O` the IC50 was 16000 nM.
Molecule `CNC(=O)c1nc(CC2CCCCC2)nc(O)c1O` has an IC50 of 6500 nM.
Work on `O=C(O)c1c(O)c(=O)nc(Cc2ccccc2Br)n1Cc1ccccc1` yielded an IC50 of 5700 nM.
Molecule `CCOC(=O)c1nc(Cc2cncn2Cc2ccccc2)nc(O)c1O` has an IC50 of 9500 nM.
`O=C(c1nc(Cc2ccccc2-c2ccccc2)nc(O)c1O)N1CCCC1` gave an IC50 of 1100 nM.
With `CNC(=O)c1nc(NS(=O)(=O)Cc2ccccc2)n(C)c(=O)c1O` the IC50 was 3000 nM.
`O=C(O)c1nc(Cc2ccc(F)cc2Br)nc(O)c1O` showed an IC50 of 180 nM.
`O=C(O)c1nc(Cc2ccccc2-c2ccccc2)nc(O)c1O` showed an IC50 of 40 nM.
`O=C(NCc1ccc(F)cc1)c1nc(Cc2ccccc2-c2ccccc2)nc(O)c1O` gave an IC50 of 1700 nM.
Molecule `O=C(NCc1ccccc1)c1nc(CC2(c3ccccc3)CCCC2)nc(O)c1O` has an IC50 of 1100 nM.
